We go through four compounds from ChEMBL document CHEMBL1201862, “PubChem BioAssay data set” (2004).

Molecules are shown by their SMILES. Activity calls are given as the source filed them.

What all share (assay type): functional
Test [1] can be described thus: HEp-2 cell cytotoxicity, dose response, cytotoxicity control for RSV inhibitor project, HTS (AID 2410). As to conditions: human respiratory syncytial virus.
The target in another test is T1, Protein RecA (Mycobacterium tuberculosis, UniProt P9WHJ3).
T1 sequence (P9WHJ3 whole entry): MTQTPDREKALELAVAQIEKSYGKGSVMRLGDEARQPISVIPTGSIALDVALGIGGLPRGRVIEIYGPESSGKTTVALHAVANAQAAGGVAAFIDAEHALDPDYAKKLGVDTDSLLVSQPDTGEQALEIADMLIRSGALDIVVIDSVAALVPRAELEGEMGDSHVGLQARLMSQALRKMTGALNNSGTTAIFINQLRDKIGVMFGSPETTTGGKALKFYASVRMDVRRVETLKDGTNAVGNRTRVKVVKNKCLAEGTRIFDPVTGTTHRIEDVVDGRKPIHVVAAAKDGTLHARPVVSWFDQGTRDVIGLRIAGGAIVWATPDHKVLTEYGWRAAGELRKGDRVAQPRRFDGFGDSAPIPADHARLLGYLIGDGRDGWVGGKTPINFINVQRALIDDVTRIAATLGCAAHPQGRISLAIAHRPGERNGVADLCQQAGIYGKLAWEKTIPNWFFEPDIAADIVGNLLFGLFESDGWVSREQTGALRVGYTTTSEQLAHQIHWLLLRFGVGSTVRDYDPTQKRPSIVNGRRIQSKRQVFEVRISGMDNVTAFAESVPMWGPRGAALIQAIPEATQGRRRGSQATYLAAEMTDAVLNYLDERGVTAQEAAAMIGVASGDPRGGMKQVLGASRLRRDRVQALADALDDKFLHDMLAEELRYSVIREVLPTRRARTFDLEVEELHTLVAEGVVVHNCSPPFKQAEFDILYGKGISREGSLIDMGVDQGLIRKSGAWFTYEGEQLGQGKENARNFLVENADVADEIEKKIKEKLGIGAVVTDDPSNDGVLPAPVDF
Description: Fluorescence Cell-Free Homogeneous Dose Retest to Identify Inhibitors of RecA-Intein Splicing Activity. [Related pubchem assays (depositor defined):AID2097, AID2223, AID489010, AID492950].

For test [2], the target named is T2, Sentrin-specific protease 7 (Homo sapiens, UniProt Q9BQF6).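 Also: Luminescence-based dose-response confirmation of ultra-high-throughput screening hits, measuring inhibition of SENP7.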
T2 sequence (Q9BQF6 whole entry): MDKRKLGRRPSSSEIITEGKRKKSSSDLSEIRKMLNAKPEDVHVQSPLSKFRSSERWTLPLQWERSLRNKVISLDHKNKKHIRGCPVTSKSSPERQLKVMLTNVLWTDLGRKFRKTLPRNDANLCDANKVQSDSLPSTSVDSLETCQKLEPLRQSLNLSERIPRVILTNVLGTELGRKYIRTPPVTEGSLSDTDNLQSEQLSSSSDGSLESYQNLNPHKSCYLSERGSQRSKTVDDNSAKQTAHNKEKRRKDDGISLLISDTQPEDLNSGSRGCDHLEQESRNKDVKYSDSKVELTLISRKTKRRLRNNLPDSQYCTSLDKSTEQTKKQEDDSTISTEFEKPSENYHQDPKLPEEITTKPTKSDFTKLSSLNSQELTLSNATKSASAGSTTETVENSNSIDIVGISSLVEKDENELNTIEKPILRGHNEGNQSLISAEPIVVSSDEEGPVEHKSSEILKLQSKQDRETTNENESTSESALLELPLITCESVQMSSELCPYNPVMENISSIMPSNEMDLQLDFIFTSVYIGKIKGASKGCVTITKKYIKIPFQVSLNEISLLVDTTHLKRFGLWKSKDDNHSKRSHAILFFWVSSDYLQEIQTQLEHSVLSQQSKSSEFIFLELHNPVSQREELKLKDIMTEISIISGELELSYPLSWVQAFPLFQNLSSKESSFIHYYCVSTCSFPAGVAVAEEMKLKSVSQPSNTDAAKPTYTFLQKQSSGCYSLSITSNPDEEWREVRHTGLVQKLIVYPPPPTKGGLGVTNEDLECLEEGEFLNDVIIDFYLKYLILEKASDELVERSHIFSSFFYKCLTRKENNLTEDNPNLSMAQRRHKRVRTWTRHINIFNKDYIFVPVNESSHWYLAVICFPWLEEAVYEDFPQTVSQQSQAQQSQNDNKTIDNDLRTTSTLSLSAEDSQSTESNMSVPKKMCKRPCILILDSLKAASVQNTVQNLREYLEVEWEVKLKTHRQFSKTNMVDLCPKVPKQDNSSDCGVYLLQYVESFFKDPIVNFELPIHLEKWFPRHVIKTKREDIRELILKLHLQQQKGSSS

Test [3] concerns the target T3, Sentrin-specific protease 6 (Homo sapiens, UniProt Q9GZR1).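 Also: Luminescence-based dose-response confirmatory assay of SENP6 inhibition, following up an ultra-high-throughput screen.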
T3 sequence (Q9GZR1 whole entry): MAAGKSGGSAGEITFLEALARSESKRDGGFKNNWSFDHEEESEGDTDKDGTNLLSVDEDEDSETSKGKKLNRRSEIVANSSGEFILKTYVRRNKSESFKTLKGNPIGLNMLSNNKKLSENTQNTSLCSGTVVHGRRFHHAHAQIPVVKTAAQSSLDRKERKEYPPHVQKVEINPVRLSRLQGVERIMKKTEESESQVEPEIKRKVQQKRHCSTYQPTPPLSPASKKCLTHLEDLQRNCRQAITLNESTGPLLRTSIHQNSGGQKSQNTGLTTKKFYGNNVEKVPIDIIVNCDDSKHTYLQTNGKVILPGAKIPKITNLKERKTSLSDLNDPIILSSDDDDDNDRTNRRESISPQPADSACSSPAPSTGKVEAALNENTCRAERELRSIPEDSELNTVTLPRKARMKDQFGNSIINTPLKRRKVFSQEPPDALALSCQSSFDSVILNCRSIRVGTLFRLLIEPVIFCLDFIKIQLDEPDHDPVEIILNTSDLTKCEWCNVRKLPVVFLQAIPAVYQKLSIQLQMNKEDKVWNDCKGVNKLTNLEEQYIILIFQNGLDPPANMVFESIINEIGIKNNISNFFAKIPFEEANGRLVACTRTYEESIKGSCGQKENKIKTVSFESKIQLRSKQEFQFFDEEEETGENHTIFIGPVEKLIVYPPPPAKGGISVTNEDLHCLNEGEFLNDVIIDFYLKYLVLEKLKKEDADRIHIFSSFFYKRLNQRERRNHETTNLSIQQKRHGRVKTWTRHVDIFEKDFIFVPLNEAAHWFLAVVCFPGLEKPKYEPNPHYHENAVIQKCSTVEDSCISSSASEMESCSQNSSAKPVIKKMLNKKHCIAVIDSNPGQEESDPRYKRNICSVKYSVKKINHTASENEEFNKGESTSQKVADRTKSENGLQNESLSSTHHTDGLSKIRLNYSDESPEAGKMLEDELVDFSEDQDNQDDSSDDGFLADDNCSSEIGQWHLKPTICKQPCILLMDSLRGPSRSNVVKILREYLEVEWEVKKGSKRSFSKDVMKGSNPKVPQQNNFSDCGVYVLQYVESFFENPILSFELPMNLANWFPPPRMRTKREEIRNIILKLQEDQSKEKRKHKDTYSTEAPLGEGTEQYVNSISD

Consider `Cc1cccc(C)c1-n1cccc1/C=C1\SC(=S)N(c2cccc(C(=O)O)c2)C1=O`, for which the CC50 in test [1] was 12.8 µM (active). The EC50 at Protein RecA is 9.09 µM (active).

On to `Oc1ccc(/C=N/Nc2cc(N3CCCC3)nc(N3CCCC3)n2)cc1`, for which the IC50 in test [2] was 31 µM (active); in test [3], 6.05 µM (active).

With `COc1ccc(S(=O)(=O)/N=C2\C=C(Nc3ccc(O)cc3)C(=O)c3ccccc32)cc1`, the EC50 on Protein RecA is 0.141 µM (active).

Turning to `COc1ccc(/C=N/Nc2cc(N3CCCC3)nc(N3CCCC3)n2)cc1`, the values for the IC50 in test [2] and in test [3] were 5.23 µM (active) and 2.71 µM (active), respectively.

The CC50 is the concentration at which the toxic effect on the cells reaches its halfway point. Usually EC50 stands for the concentration at which the effect is half-maximal. By IC50 is commonly meant the concentration that gives 50% inhibition.
